Test results reported in ChEMBL document CHEMBL1138928, “Toward orthopoxvirus countermeasures: a novel heteromorphic nucleoside of unusual structure” (J Med Chem, 2006).

Test system: Vaccinia virus
Test: Antiviral activity against vaccinia virus in HFF cells by cytopathogenic effect assay
Format: functional, organism-based
Conditions: Orthopoxvirus vaccinia

## Nc1ccn(C[C@@H](CO)OCP(=O)(O)O)c(=O)n1 [CIDOFOVIR]
  EC50: 3200 nM

## N#CC1=C(N)OC2=C(C(=O)CCC2)C1c1cn([C@H]2C[C@@H](O)[C@@H](CO)O2)c(=O)[nH]c1=O (some centres not stated)
  EC50: 600 nM
